Test results published in patent US6723741B2, “Benzimidazoles and benzothiazoles and uses thereof” (Synaptic Pharmaceutical Corporation, priority 1996, dated 2004).
pEC50, pKi: −log10 of the molar value. Counter-ions that a name gives are not always drawn.

Tests used:
[1] = biological target: human α2C adrenergic receptor (Homo sapiens, UniProt P18825); test: Radioligand binding assay, [3H]rauwolscine competition
[2] = biological target: human α2A adrenergic receptor (Homo sapiens, UniProt P08913); test: Agonist activity: inhibition of forskolin-stimulated cAMP synthesis
[3] = biological target: T1, human α2B adrenergic receptor (Homo sapiens, UniProt P18089); test: Radioligand binding assay, [3H]rauwolscine competition
T1 construct: expressed in transfected cells
T1 sequence (P18089 1-450): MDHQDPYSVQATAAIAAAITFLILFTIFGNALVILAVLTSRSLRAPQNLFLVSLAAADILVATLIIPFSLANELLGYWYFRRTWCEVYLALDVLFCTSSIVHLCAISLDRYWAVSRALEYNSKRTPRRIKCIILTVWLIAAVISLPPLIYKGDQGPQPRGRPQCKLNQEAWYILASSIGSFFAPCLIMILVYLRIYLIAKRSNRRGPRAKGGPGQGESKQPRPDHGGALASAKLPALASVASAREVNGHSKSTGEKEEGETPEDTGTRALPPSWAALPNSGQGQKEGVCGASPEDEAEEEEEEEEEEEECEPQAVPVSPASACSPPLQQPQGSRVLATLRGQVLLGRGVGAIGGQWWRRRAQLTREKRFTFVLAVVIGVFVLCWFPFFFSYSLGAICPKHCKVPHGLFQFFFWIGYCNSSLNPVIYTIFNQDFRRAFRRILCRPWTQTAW

[4] = biological target: T2, human α2C adrenergic receptor (Homo sapiens, UniProt P18825); test: as above
T2 construct: The entire coding region of α2C (1383 bp), including 2 bp of 5′ UT and 400 bp of 3′ UT; expressed in transfected cells
T2 sequence (P18825 1-462): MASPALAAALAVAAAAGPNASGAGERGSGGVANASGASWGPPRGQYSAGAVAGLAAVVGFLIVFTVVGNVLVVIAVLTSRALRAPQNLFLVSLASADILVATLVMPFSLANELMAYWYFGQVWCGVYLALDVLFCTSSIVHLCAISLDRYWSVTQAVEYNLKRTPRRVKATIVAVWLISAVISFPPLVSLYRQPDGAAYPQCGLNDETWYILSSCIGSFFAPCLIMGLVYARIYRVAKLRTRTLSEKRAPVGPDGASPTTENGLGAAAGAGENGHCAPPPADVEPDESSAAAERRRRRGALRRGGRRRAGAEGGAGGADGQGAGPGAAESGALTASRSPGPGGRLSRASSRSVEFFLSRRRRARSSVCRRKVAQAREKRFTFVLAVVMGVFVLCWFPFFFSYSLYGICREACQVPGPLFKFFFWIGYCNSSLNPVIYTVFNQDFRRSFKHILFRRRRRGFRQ

[5] = biological target: T1, human α2B adrenergic receptor; test: Agonist activity: inhibition of forskolin-stimulated cAMP synthesis; assay type: cell-based
[6] = biological target: T2, human α2C adrenergic receptor; test: as above; assay type: cell-based
[7] = biological target: T3, human α2A adrenergic receptor (Homo sapiens, UniProt P08913); test: Radioligand binding assay, [3H]rauwolscine competition; parameters: expressed in transfected cells
T3 sequence (P08913 1-465): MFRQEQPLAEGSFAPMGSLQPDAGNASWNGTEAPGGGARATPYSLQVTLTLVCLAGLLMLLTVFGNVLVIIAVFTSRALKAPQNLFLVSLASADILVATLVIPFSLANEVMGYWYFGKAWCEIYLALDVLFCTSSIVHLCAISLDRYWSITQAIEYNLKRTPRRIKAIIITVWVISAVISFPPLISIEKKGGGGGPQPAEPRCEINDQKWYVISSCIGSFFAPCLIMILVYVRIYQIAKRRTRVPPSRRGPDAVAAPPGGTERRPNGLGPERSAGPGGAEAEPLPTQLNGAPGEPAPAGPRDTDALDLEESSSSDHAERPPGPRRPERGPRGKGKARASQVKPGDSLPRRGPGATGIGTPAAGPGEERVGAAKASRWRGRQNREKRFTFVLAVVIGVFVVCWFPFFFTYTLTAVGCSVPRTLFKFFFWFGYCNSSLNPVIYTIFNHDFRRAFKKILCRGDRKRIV

[8] = biological target: T3, human α2A adrenergic receptor; test: Agonist activity: inhibition of forskolin-stimulated cAMP synthesis; remark: listed apart in the source

SMILES	melting point	further results
Cc1cc(NC2=NCCN2)cc2ncsc12 (as salt: fumarate)	179 to 181 °C	
Brc1cc(NC2=NCCN2)cc2cc[nH]c12 (as salt: fumarate) [Example 2, 7-Bromo-5-(2-imidazolin-2-ylamino)indole]	272 to 273 °C	
Clc1cc(NC2=NCCN2)cc2ncsc12 (as salt: fumarate)	203 to 205 °C	
c1nc2cc(NC3=NCCN3)ccc2s1 (as salt: fumarate) [Example 13, 5-(2-Imidazolin-2-ylamino)benzothiazole]	201 to 203 °C	
Cc1c(NC2=NCCN2)ccc2ncsc12 (as salt: fumarate)	213 to 215 °C	
CC(C)c1cc(NC2=NCCN2)cc2cc[nH]c12 (as salt: succinate)	254 to 255 °C	
c1nc2ccc(NC3=NCCS3)cc2s1		pKi [1]: 5.97
C=C(C)c1cc(NC2=NCCN2)cc2cc[nH]c12 (as salt: maleate)	154 to 156 °C	
c1nc2ccc(NC3=NCCN3)cc2s1 (as salt: fumarate) [Example 14, 6-(2-Imidazolin-2-ylamino)benzothiazole]	215 to 216 °C	
Brc1cc(NC2=NCCN2)cc2ncsc12 (as salt: fumarate)	209 to 211 °C	
c1nc2ccc(NC3=NCCN3)cc2s1		pKi [1]: 6.99; pEC50 [2]: 6.38
Cc1c(NC2=NCCN2)ccc2[nH]ccc12 (as salt: fumarate)	215 to 218 °C	
CCc1cc(NC2=NCCN2)cc2ncsc12 (as salt: fumarate)	218 to 220 °C	
Cc1cc(NC2=NCCS2)cc2cc[nH]c12 [Example 8, 7-Methyl-5-(2-thiazolin-2-ylamino)indole]		pKi [3]: 8.31; pKi [4]: 7.62; EC50 ([5]; inhibition of forskolin-stimulated cAMP, stably transfected cells expressing human α2B, read-out: pEC50 Alpha-2 B (converted)): 44.7 nM; I.A (Intrinsic Activity) Alpha-2 B ([5]; maximum activity relative to maximum activity induced by norepinephrine, human α2B): 0.80; EC50 ([6]; inhibition of forskolin-stimulated cAMP, stably transfected cells expressing human α2C, read-out: pEC50 Alpha-2 C (converted)): 2.19 nM; I.A (Intrinsic Activity) Alpha-2 C ([6]; maximum activity relative to maximum activity induced by norepinephrine, human α2C): 1.00; pKi [7]: 9.08; pEC50 [8]: 7.86; I.A (Intrinsic Activity) Alpha-2 A ([8]; maximum activity relative to maximum activity induced by norepinephrine, human α2A): 0.60
Cc1cc(NC2=NCCS2)cc2cc[nH]c12 (as salt: fumarate) [Example 8, 7-Methyl-5-(2-thiazolin-2-ylamino)indole]	200 to 202 °C	
Clc1cc(NC2=NCCN2)cc2cc[nH]c12 (as salt: fumarate)	261 to 262 °C	
c1nc2ccc(NC3=NCCS3)cc2s1 (as salt: fumarate) [Example 15, 6-(2-Thiazolin-2-ylamino)benzothiazole]	181 to 183 °C	
Cc1cc(NC2=NCCN2)cc2cc[nH]c12 (as salt: fumarate)	224 to 226 °C	
